pIC50: −log10 of the molar value. Counter-ions that a name gives are not always drawn. Like-named read-outs stand apart in the source and are kept apart here.
Tests used:
[1] = biological target: Tau binding to heparin (HS-GAG) (Homo sapiens, UniProt P10636); experiment: Inhibition of Tau binding to immobilized heparin-BSA (ELISA); parameters: species or system porcine; conditions: for inhibition at 30 µM: read-out: Tau/Heparin Activity (% inhibition class)
Description: (§1) Porcine intestinal mucosa heparin conjugated to Bovine Serum Albumin (Heparin-BSA) was prepared as described (Najjam, S. et al. 1997, Cytokine 12, 1013-1022). Heparin is a sulfated HS-GAG and is commonly used as a HS-GAG in biochemical and binding assays (Lindahl, U. and Kjellen, L. (2013) ibid). Heparin-BSA at 0.01 mg/ml in Phosphate Buffered Saline (PBS; pH 7.4) was added to a 96 well polystyrene ELISA plate (NUNC Cat. No. 449824; 100 μl per well) and incubated Over Night (ON) at 4 degrees Celsius. For negative controls, ELISA plates were coated with BSA instead of Heparin-BSA, using the same procedure. Following the incubation, the plate was washed consecutively, by immersion, with de-ionized water and PBS (pH 7.4). The ELISA plate was then blocked with nonfat milk (2%, 200 μl per well) for 2 hours at Room Temperature (RT) with gentle shaking. Following blocking, the plate was washed with de-ionized water then PBS (pH 7.4). GBAPs were dissolved and diluted in PBS (pH 6.5, supplemented with 0.1% BSA) at desired concentrations, added to the ELISA plates containing immobilized Heparin-BSA (100 μl per well) and incubated for 2 hours at RT with gentle shaking. Following incubation, the plate was washed with de-ionized water and three times with PBS (pH 6.5) plus Tween. Bound GBAP was detected by a monoclonal antibody specific for that GBAP, followed by incubation with secondary antibody conjugated to horseradish peroxidase (HRP). Antibody was diluted in PBS (pH 6.5 supplemented with 1% BSA). Following each incubation with antibody, the plate was washed with de-ionized water and three times with PBS (pH 6.5) wash buffer containing 0.1% Tween. The peroxidase substrate chromogen, TMB (Dako Cat. No. S1599) was added (100 μl per well) to the ELISA plate and incubated at room temperature. After 5 minutes ELISA Stop Solution (hydrochloric acid 1N, sulfuric acid 3N) was added (100 μl per well) to stop the peroxidase catalyzed colorimetric reaction. The Optical Density of the samples was measured at 450 nm using an ELISA plate reader (BioTek Synergy H1). Following color development, the % inhibition compared to control (BSA-coated plates) was determined. IC-50s were calculated using GraphPad Prism software.
The assay was performed as described in Example 43, with the following modifications. Following to coating the plates with Heparin-BSA, plates were washed as described. The compounds were dissolved in DMSO at 10 mM final concentration and further diluted prior to assay. DMSO concentration in the screening well was up to 2%. Individual compounds were co-incubated with Tau on plates containing immobilized heparin. Tau purchased from rPeptide (Cat. No. T1001) was dissolved in DMSO (Sigma Cat. No. D2650), quickly frozen and kept in aliquots at −80 degrees Celsius. Tau dissolved in PBS (pH 6.5, supplemented with BSA, 0.1%) was added to the ELISA plate (100 μl per well) and incubated for 2 hours at RT with gentle shaking. Following the incubation, the plate was washed with de-ionized water and three times with PBS (pH 6.5) plus Tween. Bound Tau was detected by anti-Tau Monoclonal Antibody D-8 (Santa Cruz Cat. No. sc-166060), followed by secondary anti-IgG antibody conjugated to HRP (R&D System, Cat. No. HAF007). Following to color development with TMB, as described in Example 43, the Optical Density of the samples was measured at 450 nm using an ELISA plate reader. Following color development, the % inhibition compared to control (no compound, DMSO control) for every compound was determined.
An example of inhibition curve is shown in FIG. 3 for Inhibitor Compounds 3 and 6. As described in Example 43, Heparin in the form of Heparin-BSA conjugate is used as a source of HS-GAG. For each compound IC-50 value in Tau—heparin-BSA binding assay is shown in […]. In some cases IC-50 was not measured and […] at 30 μM compound concentration is shown instead. […]

[2] = biological target: TDP-43 binding to heparin (HS-GAG) (Homo sapiens, UniProt Q13148); experiment: Inhibition of TDP-43 binding to immobilized heparin-BSA (ELISA); parameters: species or system porcine; conditions: for inhibition at 30 µM: read-out: TDP43/Heparin Activity (% inhibition class); for pIC50: TDP-43, heparin-BSA
Sequence of TDP-43 binding to heparin (HS-GAG) (Q13148 whole entry): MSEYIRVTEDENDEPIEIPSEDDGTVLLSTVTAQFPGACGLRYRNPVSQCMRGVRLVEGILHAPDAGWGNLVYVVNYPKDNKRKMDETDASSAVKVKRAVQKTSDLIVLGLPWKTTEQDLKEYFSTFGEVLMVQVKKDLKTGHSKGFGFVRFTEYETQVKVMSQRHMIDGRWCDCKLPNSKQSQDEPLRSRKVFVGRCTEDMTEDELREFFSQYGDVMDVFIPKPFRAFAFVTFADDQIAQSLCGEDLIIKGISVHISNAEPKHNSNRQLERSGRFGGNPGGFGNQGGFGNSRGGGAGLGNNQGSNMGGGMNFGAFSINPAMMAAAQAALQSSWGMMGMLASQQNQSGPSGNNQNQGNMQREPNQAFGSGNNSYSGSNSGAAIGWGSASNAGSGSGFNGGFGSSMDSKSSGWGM
Description: as §1
The assay was performed as described in Example 43, with the following modifications.
Following to coating the plates with Heparin-BSA, plates were washed as described. The compounds were dissolved in DMSO at 10 mM final concentration and further diluted prior to assay. DMSO concentration in the screening well was up to 2%. Individual compounds were co-incubated with TDP-43 on plates containing immobilized heparin. TDP43 from R&D System (Cat. No. AP-190) was quickly frozen and kept in aliquots at −80 degrees Celsius. TDP-43 dissolved in PBS (pH 6.5, supplemented with BSA, 0.1%) was added to the ELISA plate (100 μl per well) and incubated for 2 hours at RT with gentle shaking. Following the incubation, the plate was washed with de-ionized water and three times with PBS (pH 6.5) plus Tween. Bound TDP-43 was detected by Anti-TDP43 Monoclonal Antibody (R&D System Cat. No. MAB7778), followed by secondary anti-IgG antibody conjugated to HRP (R&D System, Cat. No. HAF007). Following to color development with TMB, as described in Example 43, the Optical Density of the samples was measured at 450 nm using an ELISA plate reader. Following color development, the % inhibition compared to control (no compound, DMSO control) for every compound was determined.
As described in Example 43, Heparin in the form of Heparin-BSA conjugate is used as a source of HS-GAG. For each compound IC-50 value in TDP-43—heparin-BSA binding assay is shown in μM (micromolar). In some cases IC-50 was not measured and % inhibition at 30 μM compound concentration is shown instead. […] All assays were done on 96-well plates in duplicates and experiments were repeated at least twice. […]

[3] = Tau, heparin-BSA, read-out: Tau/Heparin Activity (IC-50)
[4] = read-out: TDP43/Heparin Activity (IC-50)
[5] = Tau/Heparin Activity (IC-50), Tau, heparin-BSA
[6] = 30 μM compound, Tau, heparin-BSA

Sequence of Tau binding to heparin (HS-GAG) (P10636 with tags, fused parts or gaps): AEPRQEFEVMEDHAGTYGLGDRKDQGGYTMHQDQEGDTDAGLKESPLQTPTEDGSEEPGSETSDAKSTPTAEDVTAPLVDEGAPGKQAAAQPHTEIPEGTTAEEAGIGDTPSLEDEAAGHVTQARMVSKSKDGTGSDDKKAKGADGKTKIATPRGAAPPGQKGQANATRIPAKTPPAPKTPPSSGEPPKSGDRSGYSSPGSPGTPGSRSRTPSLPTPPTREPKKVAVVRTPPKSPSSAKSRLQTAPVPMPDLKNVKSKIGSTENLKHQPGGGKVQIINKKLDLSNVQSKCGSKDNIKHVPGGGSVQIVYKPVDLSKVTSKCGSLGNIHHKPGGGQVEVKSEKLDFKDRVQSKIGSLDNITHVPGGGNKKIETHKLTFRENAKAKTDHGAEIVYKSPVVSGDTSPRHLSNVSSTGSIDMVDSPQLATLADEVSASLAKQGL

Row | SMILES | inhibition at 30 µM [2] [%] | pIC50 [1, 5] | pIC50 ([2]; TDP43/Heparin Activity (IC-50)) | other results
1 | C/C(=N\Nc1ncnc2cc(Cl)ccc12)c1ccc(-n2cncn2)nc1 [Compound 32, (E)-4-(2-(1-(6-(1H-1,2,4-triazol-1-yl)pyridin-3-yl)ethylidene)hydrazineyl)-7-chloroquinazoline] | < 30 | – | – | inhibition at 30 µM [1]: < 30%
2 | C/C(=N\Nc1nncc2cc(Cl)ccc12)c1ccc(-n2cc(C)nc2C)nc1 [Compound 24, (E)-6-chloro-1-(2-(1-(6-(2,4-dimethyl-1H-imidazol-1-yl)pyridin-3-yl)ethylidene)hydrazineyl)phthalazine] | – | – | – | pIC50 [1, 3]: 4.42; pIC50 [2, 4]: 6.05
3 | C[n+]1ccn(-c2ccc(Nc3ncnc4cc(Cl)ccc34)cn2)c1 [Compound 43, 1-(5-((7-chloroquinazolin-4-yl)amino)pyridin-2-yl)-3-methyl-1H-imidazol-3-ium iodide phosphoric acid salt] | < 30 | – | – | inhibition at 30 µM [1]: < 30%
4 | CC(=NNc1ccnc2cc(Cl)ccc12)c1ccc(-n2cnc(C)c2C)nc1 [Compound 22, 7-chloro-4-(2-(1-(6-(4,5-dimethyl-1H-imidazol-1-yl)pyridin-3-yl)ethylidene)hydrazineyl)quinoline] | – | 4.55 | 5.04 | –
5 | Fc1ccc2c(N/N=C/c3ccc(CN4CCOCC4)cc3)ccnc2c1 [Compound 6, (E)-4-(4-((2-(7-fluoroquinolin-4-yl)hydrazono)methyl)benzyl)morpholine] | < 30 | 5.64 | – | –
6 | COc1cc(Nc2cncc3cc(Cl)ccc23)cnc1-n1cnc(C)c1C [Compound 33, 7-chloro-N-(6-(4,5-dimethyl-1H-imidazol-1-yl)-5-methoxypyridin-3-yl)isoquinolin-4-amine phosphoric acid salt] | < 30 | 4.61 | – | –
7 | C/C(=N\Nc1ncnc2cc(Cl)ccc12)c1ccc(-n2cc[n+](C)c2)nc1 [Compound 17, (E)-1-(5-(1-(2-(7-chloroquinazolin-4-yl)hydrazineylidene)ethyl)pyridin-2-yl)-3-methyl-1H-imidazol-3-ium iodide phosphoric acid salt] | – | 4.91 | 4.47 | –
8 | CN(C)Cc1cc(Nc2ccnc3cc(Cl)ccc23)ccn1 [Compound 45, 7-chloro-N-(2-((dimethylamino)methyl)pyridin-4-yl)quinolin-4-amine] | < 30 | – | – | inhibition at 30 µM [1, 6]: < 30%
9 | C/C(=N\Nc1ncnc2ccccc12)c1ccc(-n2cc(C)nc2C)nc1 [Compound 19, (E)-4-(2-(1-(6-(2,4-dimethyl-1H-imidazol-1-yl)pyridin-3-yl)ethylidene)hydrazineyl)quinazoline] | – | 4.33 | 4.43 | –
10 | Clc1ccc2c(N/N=C/c3ccc(-n4ccnc4)nc3)ccnc2c1 [Compound 14, (E)-4-(2-((6-(1H-imidazol-1-yl)pyridin-3-yl)methylene)hydrazineyl)-7-chloroquinoline hydrochloride] | – | 4.69 | 5.36 | –
11 | C/C(=N\Nc1ncnc2cc(F)ccc12)c1ccc(-n2cnc(C)c2C)nc1 [Compound 21, (E)-4-(2-(1-(6-(4,5-dimethyl-1H-imidazol-1-yl)pyridin-3-yl)ethylidene)hydrazineyl)-7-fluoroquinazoline] | – | – | – | pIC50 [1, 3]: 4.09; pIC50 [2, 4]: 5.34
12 | Cc1cn(-c2ccc(Nc3cncc4cc(Cl)ccc34)cn2)c(C)n1 [Compound 37, 7-chloro-N-(6-(2,4-dimethyl-1H-imidazol-1-yl)pyridin-3-yl)isoquinolin-4-amine phosphoric acid salt] | < 30 | – | – | inhibition at 30 µM [1]: < 30%
13 | C/C(=N\Nc1ncnc2cc(Cl)ccc12)c1ccc(-n2cc(C)nc2C)nc1 [Compound 27, (E)-7-chloro-4-(2-(1-(6-(2,4-dimethyl-1H-imidazol-1-yl)pyridin-3-yl)ethylidene)hydrazineyl)quinazoline hydrochloride] | – | – | – | pIC50 [1, 3]: 5.54; pIC50 [2, 4]: 5.66
14 | C/C(=N\Nc1ncnc2cc(F)ccc12)c1ccc(-n2cc[n+](C)c2)nc1 [Compound 26, (E)-1-(5-(1-(2-(7-fluoroquinazolin-4-yl)hydrazineylidene)ethyl)pyridin-2-yl)-3-methyl-1H-imidazol-3-ium phosphoric acid salt] | – | 4.75 | 4.48 | –
15 | CCN(CC)Cc1cccc(Nc2ccnc3cc(Cl)ccc23)c1 [Compound 42, 7-chloro-N-(3-((diethylamino)methyl)phenyl)quinolin-4-amine] | < 30 | – | – | inhibition at 30 µM [1, 6]: < 30%
16 | CC(=NNc1ccnc2cc(Cl)ccc12)c1ccc(-n2cc[n+](C)c2)nc1 [Compound 23, 1-(5-(1-(2-(7-chloroquinolin-4-yl)hydrazineylidene)ethyl)pyridin-2-yl)-3-methyl-1H-imidazol-3-ium iodide] | < 30 | 4.59 | – | –
17 | CC(=NNc1ccnc2cc(Cl)ccc12)c1ccc(-n2ccnc2)cc1 [Compound 36, 4-(2-(1-(4-(1H-imidazol-1-yl)phenyl)ethylidene)hydrazineyl)-7-chloroquinoline phosphate] | – | 4.55 | 4.32 | –
18 | C/C(=N\Nc1ncnc2cc(Cl)ccc12)c1ccc(-n2cc(C)nc2C)nc1 [Compound 18, (E)-7-chloro-4-(2-(1-(6-(2,4-dimethyl-1H-imidazol-1-yl)pyridin-3-yl)ethylidene)hydrazineyl)quinazoline phosphoric acid salt] | – | – | – | pIC50 [1, 3]: 4.87; pIC50 [2, 4]: 5.32
19 | CCN1CCN(c2ccc(Nc3ccnc4cc5ccccc5cc34)cc2)CC1 [Compound 39, N-(4-(4-ethylpiperazin-1-yl)phenyl)benzo[g]quinolin-4-amine] | > 30 | 4.88 | – | –
20 | Clc1ccc2c(N/N=C/c3ccc(-n4cccn4)cc3)ccnc2c1 [Compound 3, (E)-4-((E)-(4-(1H-pyrazol-1-yl)benzylidene)hydrazono)-7-chloro-1,4-dihydroquinoline] | – | 5.81 | 5.09 | –

— patent publication US20240398783A1, “Compounds and Pharmaceutical Compositions Comprising Inhibitors of Amyloid Peptide Interactions with Glycosaminoglycans, Methods of Treatment and Use Thereof” (Gismo Therapeutics, Inc., priority 2021, published 2024)
